Assay [1] addresses T1, human recombinant PTP1B (hGST-PTP1B) (Homo sapiens, UniProt P18031).
T1 construct: made in house; host or cells: E. coli BL21
T1 sequence (P18031 1-435): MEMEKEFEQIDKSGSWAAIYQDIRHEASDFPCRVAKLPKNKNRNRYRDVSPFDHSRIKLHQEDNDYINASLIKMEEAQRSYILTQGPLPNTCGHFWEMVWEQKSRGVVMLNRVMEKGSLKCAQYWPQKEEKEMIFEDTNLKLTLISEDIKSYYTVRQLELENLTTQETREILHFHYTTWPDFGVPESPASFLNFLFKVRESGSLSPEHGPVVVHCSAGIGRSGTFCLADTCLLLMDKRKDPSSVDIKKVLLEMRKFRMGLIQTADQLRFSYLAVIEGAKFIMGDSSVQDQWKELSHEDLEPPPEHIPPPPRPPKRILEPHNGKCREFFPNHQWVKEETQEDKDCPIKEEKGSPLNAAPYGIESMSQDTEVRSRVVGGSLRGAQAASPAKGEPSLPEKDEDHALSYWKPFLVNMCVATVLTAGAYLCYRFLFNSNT
The assay is described as follows: PTP1B inhibitory assay (pNPP hydrolysis, absorbance at 405 nm). It is filed as biochemical. Conditions: 2 mM pNPP, 30 nM hGST-PTP1B, pH 6.5, 30° C.; for inhibition at 5 µg/mL: 5 μg/mL compound; for inhibition at 20 µg/mL: 20 μg/mL compound. The method, then:
Construct human recombinant PTP1B engineering bacteria hGST-PTP1B-BL21 via molecular biology methods, and purify it through GST-tagged affinity chromatography. The principle is that the product pNP, which is enzymolysis of pNPP by PTP1B, absorbs at 405 nm. The activity of PTP1B inhibition can be measured by calculating the quantity of pNP.
Compounds 1-12 were dissolved in DMSO. 2 μL of samples were placed into the system (50 mM Tris-HCl, pH 6.5, 2 mM pNPP, 2% DMSO, 30 nM hGST-PTP1B). DMSO was distributed as negative control and Na3VO4 was positive control. The reaction was at 30° C. and monitored at 405 nm for 3 min. Inhibitory rate was calculated according to the following formula: % inhibition=100% ×[(Vsample−VDMSO)/[…]]

In assay [2] the target is T2, PTP1B (Homo sapiens, UniProt P18031).
T2 sequence (P18031 1-435): T1 sequence (P18031 1-435)
Conditions: background statement; read-out: IC50 (PTP1B inhibitor); cited from earlier work.

Like-named read-outs stand apart in the source and are kept apart here.

In the case of `COc1cc(C(=O)c2c(C(Br)Br)cc(OC)c(OC)c2Br)c(Br)c(Br)c1OC` [Compound 1, (2′-bromo-6′-(dibromomethyl)-3′,4′-dimethoxyphenyl)-(2,3-dibromo-4,5-dimethoxyphenyl)-methanone], in assay [1], the inhibition at 5 µg/mL was found to be 47.9% and the inhibition at 20 µg/mL was 101%. In assay [1] (read-out: IC50 (converted)), the concentration for half-maximal inhibition (IC50) is 1.84 µM.

For `CCCOCc1cc(O)c(O)c(Br)c1Cc1cc(O)c(O)c(Br)c1Br` [Compound 2, 3,4-dibromo-5-[2′-bromo-3′,4′-dihydroxy-6′-(propoxymethyl)-benzyl]-benzene-1,2-diol], in assay [1], the inhibition at 5 µg/mL stood at 55.7%, the inhibition at 20 µg/mL amounted to 86.2% and the IC50 turned out to be 1.08 µg/mL.

In the case of `CC(C)OCc1cc(O)c(O)c(Br)c1Cc1cc(O)c(O)c(Br)c1Br` [Compound 3, 3,4-dibromo-5-[2′-bromo-3′,4′-dihydroxy-6′-(isopropoxymethyl)-benzyl]-benzene-1,2-diol], in assay [1], the inhibition at 5 µg/mL is 68.2% and the inhibition at 20 µg/mL amounted to 93.9%. The IC50 in assay [1] (read-out: IC50 (converted)) was 0.628 µM.

With `CCCCOCc1cc(O)c(O)c(Br)c1Cc1cc(O)c(O)c(Br)c1Br` [Compound 4, 3,4-dibromo-5-[2′-bromo-6′-(butoxymethyl)-3′,4′-dihydroxy-benzyl]-benzene-1,2-diol], in assay [1], the inhibition at 5 µg/mL is 27.2% and the inhibition at 20 µg/mL turned out to be 64.6%.

In the case of `CC(C)COCc1cc(O)c(O)c(Br)c1Cc1cc(O)c(O)c(Br)c1Br` [Compound 5, 3,4-dibromo-5-[2′-bromo-3′,4′-dihydroxy-6′-(isobutoxymethyl)-benzyl]-benzene-1,2-diol], in assay [1], the inhibition at 5 µg/mL was 48.3%, the inhibition at 20 µg/mL was 96.2% and the IC50 is 0.83 µg/mL.

With `CCC(C)OCc1cc(O)c(O)c(Br)c1Cc1cc(O)c(O)c(Br)c1Br` (centres unmarked) [Compound 6, 3,4-dibromo-5-(2-bromo-6-(sec-butoxymethyl)-3,4-dihydroxybenzyl)benzene-1,2-diol], in assay [1], the inhibition at 5 µg/mL was determined as 42.4% and the inhibition at 20 µg/mL was 96.5%. The IC50 in assay [1] (read-out: IC50 (converted)) was 1.82 µM.

Take `COc1cc(Br)c(Cc2cc(OC)c(OC)c(Br)c2Cc2cc(OC)c(OC)c(Br)c2Br)cc1OC` [Compound 7, 2,3-dibromo-1-[2′-bromo-6′-(2″-bromo-4″,5″-dimethoxybenzyl)-3′,4′-dimethoxybenzyl]-4,5-dimethoxybenzene]: the inhibition at 20 µg/mL in assay [1] is 101%.

`CCCOCc1cc(O)c(O)c(Br)c1Cc1c(Br)c(O)c(O)c(Br)c1Br` [Compound 8, 3,4,6-tribromo-5-(2-bromo-3,4-dihydroxy-6-(propoxymethyl)benzyl)benzene-1,2-diol]: in assay [1], the inhibition at 5 µg/mL came out at 42.4% and the inhibition at 20 µg/mL is 98.8%. The IC50 in assay [1] (read-out: IC50 (converted)) is 1.63 µM.

Regarding `CC(C)OCc1cc(O)c(O)c(Br)c1Cc1c(Br)c(O)c(O)c(Br)c1Br` [Compound 9, 3,4,6-tribromo-5-(2-bromo-3,4-dihydroxy-6-(isopropoxymethyl)benzyl)benzene-1,2-diol], in assay [1], the inhibition at 20 µg/mL came to 98.5%.

Consider `CCCCOCc1cc(O)c(O)c(Br)c1Cc1c(Br)c(O)c(O)c(Br)c1Br` [Compound 10, 3,4,6-tribromo-5-(2-bromo-6-(butoxymethyl)-3,4-dihydroxybenzyl)benzene-1,2-diol], for which the inhibition at 20 µg/mL in assay [1] amounted to 99%.

On to `CC(C)COCc1cc(O)c(O)c(Br)c1Cc1c(Br)c(O)c(O)c(Br)c1Br` [Compound 11, 3,4,6-tribromo-5-(2-bromo-3,4-dihydroxy-6-(isobutoxymethyl)benzyl)benzene-1,2-diol], for which, in assay [1], the inhibition at 20 µg/mL worked out at 101%.

Turning to `Cc1cc(O)c(O)c(Br)c1Cc1c(Br)c(O)c(O)c(Br)c1Br` [Compound 12, 3,4,6-tribromo-5-(2-bromo-3,4-dihydroxy-6-methylbenzyl)benzene-1,2-diol], in assay [1], the inhibition at 20 µg/mL amounted to 57.7%.

As for `CCc1oc2ccccc2c1C(=O)c1cc(Br)c(O)c(Br)c1` [benzbromarone], in assay [2], the half-inhibitory concentration (IC50) was 26 µM.

The values above are taken from patent US8816129B2, “PTP1B inhibitors, synthesis thereof and application thereof in preparation of medicaments for treating type 2 diabetes mellitus” (Institute of Oceanology, Chinese Academy of Sciences, priority 2010, dated 2014).
